# Laboratory results published in paper PMC4176091, “Novel expression of Haemonchus contortus vaccine candidate aminopeptidase H11 using the free-living nematode Caenorhabditis elegans” (Veterinary Research, 2013).
# Tests used:
# Assay in all cases: aminopeptidase assay, absorbance at […] nm
# Type in all cases: biochemical
# Settings in all cases: 0.5 mM substrate; 50 mM NaPO4, pH 5.5 and 7; 2 h at 37 °C then overnight at room temperature
# [1] = biological target: T1, rH11-1 (Haemonchus contortus, UniProt Q9U5P6)
# T1 construct: gene h11-1; soluble, expressed in C. elegans; N-terminal transmembrane domain (35 aa) replaced by Hmcp-6 signal peptide; C-terminal 10 aa His tag; cobalt resin
# T1 sequence (Q9U5P6 entry or part of it): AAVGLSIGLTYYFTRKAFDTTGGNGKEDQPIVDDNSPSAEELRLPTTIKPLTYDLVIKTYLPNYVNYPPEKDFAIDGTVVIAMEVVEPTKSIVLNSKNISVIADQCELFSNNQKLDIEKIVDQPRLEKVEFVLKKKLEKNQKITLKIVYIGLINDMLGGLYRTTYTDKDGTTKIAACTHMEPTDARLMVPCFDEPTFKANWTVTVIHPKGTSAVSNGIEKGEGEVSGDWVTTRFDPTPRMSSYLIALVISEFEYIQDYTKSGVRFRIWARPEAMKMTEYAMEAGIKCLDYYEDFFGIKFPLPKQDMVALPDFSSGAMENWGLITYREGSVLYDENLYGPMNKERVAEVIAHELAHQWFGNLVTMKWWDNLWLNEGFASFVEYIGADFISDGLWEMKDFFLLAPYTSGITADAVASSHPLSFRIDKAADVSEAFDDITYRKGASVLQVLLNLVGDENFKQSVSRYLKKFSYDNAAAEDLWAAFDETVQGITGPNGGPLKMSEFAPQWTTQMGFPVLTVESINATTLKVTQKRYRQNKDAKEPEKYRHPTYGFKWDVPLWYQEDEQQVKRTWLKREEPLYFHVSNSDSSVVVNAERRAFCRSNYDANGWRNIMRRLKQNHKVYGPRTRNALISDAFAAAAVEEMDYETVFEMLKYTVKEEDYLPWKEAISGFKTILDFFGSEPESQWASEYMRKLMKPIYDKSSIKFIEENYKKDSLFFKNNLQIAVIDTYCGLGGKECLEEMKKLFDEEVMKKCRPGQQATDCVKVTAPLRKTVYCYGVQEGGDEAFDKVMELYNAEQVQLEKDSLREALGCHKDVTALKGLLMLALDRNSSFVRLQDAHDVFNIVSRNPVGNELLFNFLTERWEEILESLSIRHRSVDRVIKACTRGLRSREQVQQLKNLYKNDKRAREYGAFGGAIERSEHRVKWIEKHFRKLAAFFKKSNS
# [2] = biological target: T2, rH11-5 (Haemonchus contortus, UniProt V5K5H8)
# T2 construct: soluble, expressed in C. elegans; N-terminal transmembrane domain (35 aa) replaced by Hmcp-6 signal peptide; C-terminal 10 aa His tag; cobalt resin
# T2 sequence (V5K5H8 entry or part of it): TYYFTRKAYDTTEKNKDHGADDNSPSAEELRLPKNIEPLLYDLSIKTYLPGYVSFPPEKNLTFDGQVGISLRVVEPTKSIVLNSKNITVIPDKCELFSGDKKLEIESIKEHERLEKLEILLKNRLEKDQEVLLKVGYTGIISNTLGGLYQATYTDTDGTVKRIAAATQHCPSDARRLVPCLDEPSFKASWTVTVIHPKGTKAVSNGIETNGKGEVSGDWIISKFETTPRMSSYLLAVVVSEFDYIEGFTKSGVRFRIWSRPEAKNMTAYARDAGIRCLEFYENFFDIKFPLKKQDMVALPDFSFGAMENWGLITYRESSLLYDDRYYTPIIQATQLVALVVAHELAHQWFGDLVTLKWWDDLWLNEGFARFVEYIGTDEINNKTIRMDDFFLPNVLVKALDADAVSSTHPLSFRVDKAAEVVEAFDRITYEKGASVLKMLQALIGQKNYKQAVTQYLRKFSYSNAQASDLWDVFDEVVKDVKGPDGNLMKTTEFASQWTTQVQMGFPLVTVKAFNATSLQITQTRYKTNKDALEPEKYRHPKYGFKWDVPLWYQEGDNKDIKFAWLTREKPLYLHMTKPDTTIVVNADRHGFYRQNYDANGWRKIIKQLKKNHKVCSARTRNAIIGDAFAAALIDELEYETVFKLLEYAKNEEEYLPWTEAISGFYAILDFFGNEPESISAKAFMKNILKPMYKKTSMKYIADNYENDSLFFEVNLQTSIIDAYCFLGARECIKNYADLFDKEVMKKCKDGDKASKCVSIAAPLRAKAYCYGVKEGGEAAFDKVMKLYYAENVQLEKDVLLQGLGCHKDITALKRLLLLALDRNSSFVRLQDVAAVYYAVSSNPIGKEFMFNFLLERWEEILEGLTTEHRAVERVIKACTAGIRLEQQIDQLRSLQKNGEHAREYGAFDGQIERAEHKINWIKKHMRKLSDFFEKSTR
# [3] = biological target: T3, H11 (rH11, isoform H11) (Haemonchus contortus, UniProt Q10737)
# T3 construct: soluble, expressed in C. elegans; N-terminal transmembrane domain (35 aa) replaced by Hmcp-6 signal peptide; C-terminal 10 aa His tag; cobalt resin
# T3 sequence (Q10737 36-972): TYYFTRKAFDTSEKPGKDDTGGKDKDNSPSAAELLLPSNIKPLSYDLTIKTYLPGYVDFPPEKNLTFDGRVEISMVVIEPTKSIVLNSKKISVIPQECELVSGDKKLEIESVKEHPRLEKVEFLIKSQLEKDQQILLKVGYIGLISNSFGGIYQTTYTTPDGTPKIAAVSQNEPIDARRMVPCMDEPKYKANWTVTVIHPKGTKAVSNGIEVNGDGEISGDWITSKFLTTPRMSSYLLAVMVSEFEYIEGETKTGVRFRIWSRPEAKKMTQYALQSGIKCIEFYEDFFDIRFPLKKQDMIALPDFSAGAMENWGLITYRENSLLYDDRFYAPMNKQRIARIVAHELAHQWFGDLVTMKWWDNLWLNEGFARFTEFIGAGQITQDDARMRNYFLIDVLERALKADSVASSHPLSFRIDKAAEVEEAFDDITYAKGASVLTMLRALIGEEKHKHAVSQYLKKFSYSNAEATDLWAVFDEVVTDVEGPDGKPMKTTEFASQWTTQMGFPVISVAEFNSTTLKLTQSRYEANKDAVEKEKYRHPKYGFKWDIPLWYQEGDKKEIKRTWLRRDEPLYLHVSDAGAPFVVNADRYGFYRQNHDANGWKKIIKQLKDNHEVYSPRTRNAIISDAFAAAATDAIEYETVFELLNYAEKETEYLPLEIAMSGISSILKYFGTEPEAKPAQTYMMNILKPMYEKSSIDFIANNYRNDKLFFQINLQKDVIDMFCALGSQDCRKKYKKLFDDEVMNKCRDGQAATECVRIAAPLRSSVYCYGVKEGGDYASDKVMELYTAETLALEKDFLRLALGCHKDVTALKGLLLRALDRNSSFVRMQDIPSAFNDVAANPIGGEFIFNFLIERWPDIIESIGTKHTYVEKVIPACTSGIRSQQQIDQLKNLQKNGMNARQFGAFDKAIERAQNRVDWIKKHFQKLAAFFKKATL
# [4] = biological target: T4, rH11-4 (Haemonchus contortus, UniProt Q967C6)
# T4 construct: gene h11-4; soluble, expressed in C. elegans; N-terminal transmembrane domain (35 aa) replaced by Hmcp-6 signal peptide; C-terminal 10 aa His tag; N-glycosylated; cobalt resin
# T4 sequence (Q967C6 entry or part of it): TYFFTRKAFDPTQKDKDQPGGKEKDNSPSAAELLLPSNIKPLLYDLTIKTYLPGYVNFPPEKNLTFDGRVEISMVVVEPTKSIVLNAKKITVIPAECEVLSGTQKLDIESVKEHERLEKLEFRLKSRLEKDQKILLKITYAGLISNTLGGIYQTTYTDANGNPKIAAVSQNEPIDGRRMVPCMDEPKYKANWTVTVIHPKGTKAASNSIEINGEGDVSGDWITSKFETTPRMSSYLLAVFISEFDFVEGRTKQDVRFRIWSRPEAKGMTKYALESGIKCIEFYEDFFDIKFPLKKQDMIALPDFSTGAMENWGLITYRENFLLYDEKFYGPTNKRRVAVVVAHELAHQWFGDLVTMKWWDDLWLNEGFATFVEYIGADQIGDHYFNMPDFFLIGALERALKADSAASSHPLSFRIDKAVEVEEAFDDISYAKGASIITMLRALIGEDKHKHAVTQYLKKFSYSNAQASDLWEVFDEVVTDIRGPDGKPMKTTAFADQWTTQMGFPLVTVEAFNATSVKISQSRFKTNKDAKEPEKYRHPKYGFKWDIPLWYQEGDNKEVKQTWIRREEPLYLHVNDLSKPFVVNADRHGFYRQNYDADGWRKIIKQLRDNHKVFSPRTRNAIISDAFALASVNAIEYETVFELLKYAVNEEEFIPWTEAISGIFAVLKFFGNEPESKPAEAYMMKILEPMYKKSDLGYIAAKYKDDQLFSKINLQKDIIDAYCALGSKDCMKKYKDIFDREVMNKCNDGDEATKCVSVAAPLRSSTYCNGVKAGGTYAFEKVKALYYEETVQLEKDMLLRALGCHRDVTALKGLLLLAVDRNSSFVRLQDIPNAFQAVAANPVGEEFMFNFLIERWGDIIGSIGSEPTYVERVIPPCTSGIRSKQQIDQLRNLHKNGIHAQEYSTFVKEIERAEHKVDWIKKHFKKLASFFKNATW
structure (smiles),measurement,setting,value
CC(C)C[C@H](N)C(=O)Nc1ccc([N+](=O)[O-])cc1 [L-leucine p-nitroanilide],"aminopeptidase assay, absorbance at 405 nm",[1],rH11-4 and rH11-5 showing greater activity than H11 and H11-1 isoforms
same,"aminopeptidase assay, absorbance at 405 nm",[2],rH11-4 and rH11-5 showing greater activity than H11 and H11-1 isoforms
same,"aminopeptidase assay, absorbance at 405 nm",[3],rH11-4 and rH11-5 showing greater activity than H11 and H11-1 isoforms
same,"aminopeptidase assay, absorbance at 405 nm",[4],rH11-4 and rH11-5 showing greater activity than H11 and H11-1 isoforms
